Target: T1, FPR2 (Homo sapiens, UniProt P25090)
T1 construct: expressed in transfected cells; host or cells: CHO-Gα16 cells
T1 sequence (P25090 1-351): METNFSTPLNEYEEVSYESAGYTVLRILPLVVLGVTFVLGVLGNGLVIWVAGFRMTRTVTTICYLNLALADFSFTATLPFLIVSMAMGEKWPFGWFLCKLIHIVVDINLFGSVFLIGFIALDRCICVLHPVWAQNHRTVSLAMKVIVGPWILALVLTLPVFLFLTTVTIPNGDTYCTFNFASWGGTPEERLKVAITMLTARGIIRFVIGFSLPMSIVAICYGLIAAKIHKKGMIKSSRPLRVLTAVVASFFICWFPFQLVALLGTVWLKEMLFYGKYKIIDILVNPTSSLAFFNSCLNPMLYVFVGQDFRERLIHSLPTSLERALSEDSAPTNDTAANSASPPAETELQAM
Experiment: compound-induced calcium activity on FLIPR Tetra in CHO-Gα16 cells stably expressing FPR2
Format: cell-based
Details: for Emax: efficacy value in brackets after EC50, read-out: FPR2 Gα16-CHO (% eff); for EC50: tested 0.61 to 10,000 nM
Protocol: CHO-Gα16 cells stably expressing FPR2 were cultured in (F12, 10% FBS, 1% PSA, 400 μg/ml geneticin and 50 μg/ml hygromycin) and HEK-Gqi5 cells stable expressing FPR1 were cultured in (DMEM high glucose, 10% FBS, 1% PSA, 400 μg/ml geneticin and 50 μg/ml hygromycin). In general, the day before the experiment, 18,000 cells/well were plated in a 384-well clear bottom poly-D-lysine coated plate. The following day the screening compound-induced calcium activity was assayed on the FLIPR^Tetra. The drug plates were prepared in 384-well microplates using the EP3 and the MultiPROBE robotic liquid handling systems. Compounds were tested at concentrations ranging from 0.61 to 10,000 nM. Results are expressed as EC50 (nM) and % efficacy values.

| Emax [%] | EC50 [nM] | Compound |
| --- | --- | --- |
| 99 | 3.9 | CC(C)C[C@H](OC(=O)Nc1ccc(C(F)(F)F)cc1)C(=O)NCC(=O)O [Compound 20, {[(2S)-4-Methyl-2-({[4-(trifluoromethyl)phenyl]carbamoyl}oxy)pentanoyl]amino}acetic acid] |
| 112 | 2020 | CC(C)C[C@H](OC(=O)Nc1ccc(C(F)(F)F)cc1)C(=O)NCC(=O)OC(C)(C)C [Compound 2, tert-Butyl {[(2S)-4-Methyl-2-({[4-(trifluoromethyl)phenyl]carbamoyl}oxy)pentanoyl]amino}acetate] |

| Compound | Emax [%] | EC50 [nM] |
| --- | --- | --- |
| CCOP(=O)(CNC(=O)[C@H](CC(C)C)OC(=O)Nc1ccc(C(F)(F)F)cc1)OCC [Compound 5, Diethyl ({[(2S)-4-methyl-2-({[4-(Trifluoromethyl)phenyl]carbamoyl}oxy)pentanoyl]amino}methyl)phosphonate] | 101 | 6.7 |

— US9926264B2, “Phenylcarbamate derivatives as formyl peptide receptor modulators” (Allergan, Inc., priority 2013, dated 2018)
